Values after ≈ are worked out from the molar mass of the structure shown. Marks after values point to notes of the source that are not given here.
Assays:
[1] = system: chloroquine-sensitive NF54 strain of P. falciparum; test: in vitro screen against chloroquine-sensitive NF54 strain of P. falciparum; type: cell-based; conditions: in vitro, NF54 strain
[2] = differential scanning calorimetry (DSC), thermal stability; type: physicochemical; conditions: thermal decomposition
P. berghei [3] = test: 4-day Peters test against P. berghei in vivo; conditions: 4 day
P. berghei [4] = test: 1-day Peters test against P. berghei in vivo; conditions: for oral activity based on po ED50/ED90 values: ranking among trioxolanes and controls
[5] = system: chloroquine-resistant K1 strain of P. falciparum; test: in vitro screen against chloroquine-resistant K1 strain of P. falciparum; type: cell-based; conditions: in vitro; for in vitro potency: strains not distinguished
[6] = system: ANKA strain of P. Berghei; test: single dose STI in vivo screen in infected Moro SPF mice; conditions: for antimalarial activity, overall assessment: overall judgement of in vitro and in vivo data of Table 2; for in vivo activity: 10 mg/kg po/sc data of Table 2; for Activity (%) po / Activity (%) sc: percent reduction in parasitemia day 3 post-infection
Experimental: In the single dose STI in vivo screen, Moro SPF mice infected with the ANKA strain of P. Berghei (groups of three mice) were treated on day one post-infection with trioxolanes dissolved or suspended in 3% ethanol and 7% Tween 80. […] Antimalarial activity was measured by percent redution in parasitemia on day three post-infection and survival times compared to an untreated control group. Survival to day 30 post-infection is considered to be a cure.

[7] = system: adult schistosomes (49-day-old) of Schistosoma mansoni; test: effect on adult schistosomes (49-day-old) in mice; type: in vivo; conditions: single 400 mg/kg per os; for TWR (%): total worm reduction rate; for Mean total worm burden: x ± SD
Experimental: (§1) Mice were infected with 100 Schistosoma mansoni cercariae on day 49 post-treatment. Each group was treated per os with OZ compounds at a single dose of 400 mg/kg. Untreated mice served as the control. All groups were killed 4 weeks after treatment and the liver and intestine were removed and separated. The liver and intestine were compressed and alive male and female worms could be seen and counted.

[8] = system: 21-day-old schistosomules of Schistosoma mansoni; test: effect on 21-day-old schistosomules in mice; type: in vivo; conditions: single 200 mg/kg per os; for FWR (%): female worm reduction rate; for Mean female worm burden: mean ± standard deviation; for TWR (%): total worm reduction rate
Experimental: as §1, with “Mice were infected with 100 Schistosoma mansoni cercariae on day 49 post-treatment.” left out, “200” for “400”, “counted. The effect of the compounds was evaluated by mean total and female worm burden.” for “counted.”

Compound: O=S(=O)(c1ccc(F)cc1)N1CCC2(CC1)OOC1(O2)C2CC3CC(C2)CC1C3 (centres unmarked) [OZ86, Adamantane-2-spiro-3′-8′-(4′-fluorobenzenesulfonyl)-1′,2′,4′-trioxa-8′-azaspiro[4.5]decane]
- IC50 (ng/ml) NF54 [1]: /2.3 ng/ml
- Tm dec. (° C.) [2]: 153.0 °C

Compound: c1ccc(CON=C2CCC3(CC2)OOC2(O3)C3CC4CC(C3)CC2C4)cc1 (centres unmarked) [OZ19, Adamantane-2-spiro-3′-8′-benzyloxyimino-1′,2′,4′-trioxaspiro[4.5]decane]
- P. berghei (4 day) ED50 po (P. berghei [3]): <10/>10 mg/kg
- P. berghei (4 day) ED90 po (P. berghei [3]): <10/>10 mg/kg
- Tm dec. (° C.) [2]: 157.8 °C
- P. berghei (1 day) ED50 po (P. berghei [4]): 3.4 mg/kg
- P. berghei (1 day) ED90 po (P. berghei [4]): 9.4 mg/kg
- P. berghei (1 day) ED50 sc (P. berghei [4]): 1.8 mg/kg
- P. berghei (1 day) ED90 sc (P. berghei [4]): 3.6 mg/kg
- in vitro potency, fold less potent than the analog [5]: ~2 fold

Compound: OCCC1CCC2(CC1)OOC1(O2)C2CC3CC(C2)CC1C3 (centres unmarked) [OZ89, Adamantane-2-spiro-3′-8′-(2′-hydroxyethyl)-1′,2′,4′-trioxaspiro[4.5]decane]
- IC50 (ng/ml) NF54 [1]: /1.0 ng/ml
- antimalarial activity, overall assessment [6]: quite active
- Tm dec. (° C.) [2]: 154.7 °C

Compound: CC(=O)OCC(=O)N1CCC2(CC1)OOC1(O2)C2CC3CC(C2)CC1C3 (centres unmarked) [OZ82, Adamantane-2-spiro-3′-8′-acetoxyacetyl-1′,2′,4′-trioxa-8′-azaspiro[4.5]decane]
- IC50 (ng/ml) NF54 [1]: /1.3 ng/ml
- antimalarial activity, overall assessment [6]: very active
- Tm dec. (° C.) [2]: 153.7 °C

Compound: CCS(=O)(=O)N1CCC2(CC1)OOC1(O2)C2CC3CC(C2)CC1C3 (centres unmarked) [OZ79, Adamantane-2-spiro-3′-8′-ethanesulfonyl-1′,2′,4′-trioxa-8′-azaspiro[4.5]decane]
- in vivo activity [6]: good
- Tm dec. (° C.) [2]: 153.6 °C
- in vitro potency [5]: very potent

Compound: O=C1CC2CC3(CC2C1)OOC1(O3)C2CC3CC(C2)CC1C3 (stereo not drawn) [OZ12, Adamantane-2-spiro-3′-1′,2′,4′-trioxolane-5′-spiro-3″-7″-oxo-cis-bicyclo[3.3.0]octane]
- P. berghei (4 day) ED50 po (P. berghei [3]): 6.8 mg/kg
- P. berghei (4 day) ED90 po (P. berghei [3]): 10.5 mg/kg
- P. berghei (4 day) ED50 sc (P. berghei [3]): 0.8 mg/kg
- P. berghei (4 day) ED90 sc (P. berghei [3]): 1.4 mg/kg
- Tm dec. (° C.) [2]: 149.8 °C

Compound: CC(C)(C)C1CCC2(CC1)OOC1(O2)C2CC3CC(C2)CC1C3 (centres unmarked) [OZ18, Adamantane-2-spiro-3′-8′-t-butyl-1′,2′,4′-trioxaspiro[4.5]decane]
- antimalarial activity, overall assessment [6]: completely inactive
- Activity (%) po ([6]; single 10 mg/kg po): 0/0%
- Activity (%) sc ([6]; single 10 mg/kg sc): 0/0%
- Percentage of dead worm [7]: 0
- Total dead worm [7]: 0
- TWR (%) [7]: 0.6%
- Mean total worm burden [7]: 35.6 ± 7.2^a
- FWR (%) [8]: 9%
- Mean female worm burden [8]: 11.4 ± 2.7^a
- TWR (%) [8]: 12%
- Tm dec. (° C.) [2]: 166.5 °C

Compound: c1ccc2c(c1)COC1(CCC3(CC1)OOC1(O3)C3CC4CC(C3)CC1C4)OC2 (centres unmarked) [OZ31, Adamantane-2-spiro-3′-11′,12′-benzo-1′,2′,4′, 9′,14′-pentaoxadispiro[4.2.6.2]hexadecane]
- Activity (%) po ([6]; single 10 mg/kg po): 99.95/99.95%
- Activity (%) sc ([6]; single 10 mg/kg sc): 99.95/99.95%
- Tm dec. (° C.) [2]: 161.1 °C
- P. berghei (1 day) ED50 po (P. berghei [4]): 1.6 mg/kg
- P. berghei (1 day) ED90 po (P. berghei [4]): 3.9 mg/kg
- P. berghei (1 day) ED50 sc (P. berghei [4]): 1.1 mg/kg
- P. berghei (1 day) ED90 sc (P. berghei [4]): 2.4 mg/kg

Compound: CCO[C@H]1O[C@@H]2O[C@@]3(C)CC[C@H]4[C@H](C)CC[C@@H]([C@H]1C)[C@@]24OO3 [Arteether, arteether, reference compound]
- IC50 (ng/ml) NF54 [1]: 0.54 ng/mL (≈ 1.73 nM)
- Activity (%) po ([6]; single 10 mg/kg po): 98%
- Activity (%) sc ([6]; single 10 mg/kg sc): 100%
- Activity (%) po ([6]; single 100 mg/kg po): 99.98%
- Activity (%) sc ([6]; single 100 mg/kg sc): 100%
- Survival (days) po ([6]; single 10 mg/kg po): 8 days
- Survival (days) sc ([6]; single 10 mg/kg sc): 9.7 days
- Survival (days) po ([6]; single 100 mg/kg po, survival to day 30 = cure): 12 days
- Survival (days) sc ([6]; single 100 mg/kg sc, survival to day 30 = cure): 26.3 days
- P. berghei (1 day) ED50 po (P. berghei [4]): 2.4 mg/kg
- P. berghei (1 day) ED90 po (P. berghei [4]): 6.8 mg/kg

Compound: O=C(CCl)N1CCC2(CC1)OOC1(O2)C2CC3CC(C2)CC1C3 (centres unmarked) [OZ87, Adamantane-2-spiro-3′-8′-chloroacetyl-1′,2′,4′-trioxa-8′-azaspiro[4.5]decane]
- IC50 (ng/ml) NF54 [1]: /4.5 ng/ml
- antimalarial activity, overall assessment [6]: much less active
- Tm dec. (° C.) [2]: 149.7 °C

Compound: O=C(OCCC1CCC2(CC1)OOC1(O2)C2CC3CC(C2)CC1C3)c1ccc([N+](=O)[O-])cc1 (centres unmarked) [OZ88, Adamantane-2-spiro-3′-8′-[2′-(4′-nitrobenzoyloxy)ethyl]-1′,2′,4′-trioxaspiro[4.5]decane]
- IC50 (ng/ml) NF54 [1]: /4.2 ng/ml
- Tm dec. (° C.) [2]: 158.9 °C

Compound: O=C(c1ccccc1)N1CCC2(CC1)OOC1(O2)C2CC3CC(C2)CC1C3 (centres unmarked) [OZ24, Adamantane-2-spiro-3′-8′-benzoyl-1′,2′,4′-trioxa-8′-azaspiro[4.5]decane]
- P. berghei (4 day) ED50 po (P. berghei [3]): <10/>10 mg/kg
- P. berghei (4 day) ED90 po (P. berghei [3]): <10/>10 mg/kg
- Tm dec. (° C.) [2]: 154.9 °C
- P. berghei (1 day) ED50 po (P. berghei [4]): 3.9 mg/kg
- P. berghei (1 day) ED90 po (P. berghei [4]): 9.0 mg/kg
- P. berghei (1 day) ED90 sc (P. berghei [4]): NA/2.1 mg/kg

Compound: CCCC1CCC2(CC1)OOC1(O2)C2CC3CC(C2)CC1C3 (centres unmarked) [OZ25, Adamantane-2-spiro-3′-8′-propyl-1′,2′,4′-trioxaspiro[4.5]decane]
- antimalarial activity, overall assessment [6]: excellent activity
- P. berghei (4 day) ED50 po (P. berghei [3]): 1.2 mg/kg
- P. berghei (4 day) ED90 po (P. berghei [3]): 3.7 mg/kg
- P. berghei (4 day) ED50 sc (P. berghei [3]): 2.2 mg/kg
- P. berghei (4 day) ED90 sc (P. berghei [3]): 3.7 mg/kg
- Tm dec. (° C.) [2]: 167.7 °C
- P. berghei (1 day) ED50 po (P. berghei [4]): 1.9 mg/kg
- P. berghei (1 day) ED90 po (P. berghei [4]): 3.1 mg/kg
- P. berghei (1 day) ED50 sc (P. berghei [4]): 1.7 mg/kg
- P. berghei (1 day) ED90 sc (P. berghei [4]): 3.0 mg/kg
- oral activity based on po ED50/ED90 values (P. berghei [4]): only slightly less orally active than OZ11

Compound: Clc1ccc(C2(c3ccc(Cl)cc3)OOC3(O2)C2CC4CC(C2)CC3C4)cc1 (centres unmarked) [OZ43, Adamantane-2-spiro-3′-5′, 5′-bis(4′-chlorophenyl)-1′,2′,4′-trioxolane]
- Percentage of dead worm [7]: 0
- Total dead worm [7]: 0
- TWR (%) [7]: 1.1%
- Mean total worm burden [7]: 35.4 ± 15.8^a
- Tm dec. (° C.) [2]: 155.8 °C
- P. berghei (1 day) ED50 po (P. berghei [4]): 2.1 mg/kg
- P. berghei (1 day) ED90 po (P. berghei [4]): 4.0 mg/kg
- oral activity based on po ED50/ED90 values (P. berghei [4]): only slightly less orally active than OZ11

Compound: O=C(CO)N1CCC2(CC1)OOC1(O2)C2CC3CC(C2)CC1C3 (centres unmarked) [OZ83, Adamantane-2-spiro-3′-8′-hydroxyacetyl-1′,2′,4′-trioxa-8′-azaspiro[4.5]decane]
- IC50 (ng/ml) NF54 [1]: /1.0 ng/ml
- antimalarial activity, overall assessment [6]: very active
- Tm dec. (° C.) [2]: 163.6 °C

Compound: CC1(O)CCC2(CC1)OOC1(O2)C2CC3CC(C2)CC1C3 (centres unmarked) [OZ90, Adamantane-2-spiro-3′-8′-hydroxy-8′-methyl-1′,2′,4′-trioxaspiro[4.5]decane]
- IC50 (ng/ml) NF54 [1]: /1.1 ng/ml
- antimalarial activity, overall assessment [6]: quite active
- Tm dec. (° C.) [2]: 153.2 °C

Compound: CON=C1CCC2(CC1)OOC1(O2)C2CC3CC(C2)CC1C3 (centres unmarked) [OZ15, Adamantane-2-spiro-3′-8′-methoxyimino-1′,2′,4′-trioxaspiro[4.5]decane]
- P. berghei (4 day) ED50 po (P. berghei [3]): 2.9 mg/kg
- P. berghei (4 day) ED90 po (P. berghei [3]): 6.3 mg/kg
- P. berghei (4 day) ED50 sc (P. berghei [3]): 0.7 mg/kg
- P. berghei (4 day) ED90 sc (P. berghei [3]): 1.1 mg/kg
- Percentage of dead worm [7]: 10 (21/210)
- Total dead worm [7]: 21
- TWR (%) [7]: 0%
- Mean total worm burden [7]: 37.8 ± 20.6
- FWR (%) [8]: 70%
- Mean female worm burden [8]: 3.8 ± 2.4^b
- TWR (%) [8]: 63%
- Tm dec. (° C.) [2]: 157.8 °C
- P. berghei (1 day) ED50 po (P. berghei [4]): 3.1 mg/kg
- P. berghei (1 day) ED90 po (P. berghei [4]): 5.9 mg/kg
- P. berghei (1 day) ED50 sc (P. berghei [4]): 0.7 mg/kg
- P. berghei (1 day) ED90 sc (P. berghei [4]): 2.6 mg/kg

Compound: CC(=O)N1CCC2(CC1)OOC1(O2)C2CC3CC(C2)CC1C3 (centres unmarked) [OZ49, Adamantane-2-spiro-3′-8′-acetyl-1′,2′,4′-trioxa-8′-azaspiro[4.5]decane]
- Tm dec. (° C.) [2]: 155.7 °C
- in vitro potency, fold less potent than the analog [5]: 2 fold

Compound: Adamantane-2-spiro-3′-1′,2′,4′-trioxaspiro[4.5]decan-8′-one pyridinioacetylhydrazone chloride [OZ55]
- in vivo activity [6]: minimal
- Activity (%) po ([6]; single 10 mg/kg po): 45%
- Activity (%) sc ([6]; single 10 mg/kg sc): 97%
- Survival (days) po ([6]; single 10 mg/kg po): 6.0 days
- Survival (days) sc ([6]; single 10 mg/kg sc): 7.3 days
- in vitro potency [5]: quite potent

Source: patent publication US6486199B1, “Spiro and dispiro 1,2,4-trioxolane antimalarials” (Medicines for Malaria Venture MMV International Centre …, priority 2001, dated 2002)
